What all share (type): cell-based, human
In experiment [1] the test system is SLC1A1 localization in HCT116 cells. Nature of the experiment: Immunofluorescence analysis of SLC1A1 subcellular localization. The conditions noted are these: parental HCT116 cells; 48 h; 0.8 μM SN38 or 20 μM oxaliplatin. The procedure:
Immunofluorescence analysis was carried out essentially as in [47]. Cells grown on glass coverslips were fixed in 2 % paraformaldehyde, washed in TBST, permeabilized for 5 min (0.5 % Triton X-100 in TBST), blocked for 30 min in 5 % BSA in TBST, incubated with SLC1A1 primary antibody in TBST + 1 % BSA overnight at 4 °C, washed in TBST, and with Rhodamine-phalloidin and AlexaFluor488 conjugated secondary antibody (1:600 in TBS + 1 % BSA) for 1 h, followed by washing in TBST, and mounting in N-propyl-galleate mounting medium (2 % w/v in PBS/glycerol). DAPI was added for 3 min following incubation with the secondary antibody. Cells were visualized using the 60X/1.35 NA objective of an Olympus Bx63 epifluorescence microscope. […] Overlays were carried out using Adobe Photoshop software. No other image adjustment was performed.

Experiment [2] relates to PARP-1 cleavage. Briefly: PARP-1 cleavage by Western blotting. The conditions noted are these: HCT116 parental, oxaliplatin-resistant and SN38-resistant cells; 0.8 μM SN38, 24 h. The procedure:
(§1) Cells were grown to a confluence of 60-80 % and treated with chemotherapy, siRNA- or plasmid transfection as indicated. Cells were washed once in PBS, lysed in lysis buffer (1 % SDS, 0.1 M Tris pH 7.5, and 1 mM Na3VO4), sonicated, and protein content determined (DC assay, BioRad). Lysates were mixed 2:1with NuPage LDS sample buffer (Invitrogen). SDS-PAGE was carried out in NOVEX chambers with NuPAGE 10 % Bis-Tris gels under reducing and denaturing conditions, using BenchMark protein ladder (Invitrogen), and 15 μg protein per lane. Proteins were transferred to PVDF membranes, which were Ponceau S stained, blocked for 1 h at 37 °C in 5 % nonfat dry milk in TBST (0.01 M Tris/HCl, 0.15 M NaCl, 0.1 % Tween 20, pH 7.4), incubated overnight at 4 °C with primary antibodies diluted in blocking buffer, washed in TBST, incubated with secondary antibodies for 1 h, washed in TBST, and developed using BCIP/NBT (KPL). Bands were scanned and quantified using UN-SCAN-IT (Silk Scientific).
Supplementary file 12885_2015_1405_MOESM3_ESM.tiff: Additional file 3: Figure S3. […] Equal amounts of protein per lane were separated by SDS-PAGE and the protein levels of p21, and PARP-1 (full-length and cleaved, the latter indicated by arrowheads) were determined by Western blotting. […] Bottom: Densitometric quantifications based on 3 independent experiments per condition. […]
(In western blotting, separated proteins are transferred to a membrane and probed.)

Experiment [3] relates to parental and drug-resistant HCT116 and LoVo cell lines. Briefly: MTT viability assay, HCT116 and LoVo cell lines. To be noted: Homo sapiens; parental HCT116 and LoVo; 48 h; 0.8 μM SN38 (highest dose tested); read-out: viable cells remaining. The procedure: Fig. 2 DL-TBOA augments SN38-induced death in SN38-resistant cells, but protects oxaliplatin-resistant cells from oxaliplatin-induced death. Parental and drug-resistant HCT116 and LoVo cell lines seeded in 96-well dishes were exposed to SN38 (0.1 or 0.8 μM) or oxaliplatin (0.8 or 20 μM), alone or in combination with 70 or 350 μM DL-TBOA as indicated, for 48 h. Viability was assessed by MTT assay. a-b Parental HCT116 cells, (c) SN38 resistant HCT116 cells, (d) Oxaliplatin-resistant HCT116 cells, (e-f) Parental LoVo cells, (g) SN38 resistant LoVo cells, (h) Oxaliplatin-resistant LoVo cells. Data are means with S.E.M. error bars of 3 independent experiments. *) p < 0.05, **) p < 0.01, ***) p < 0.001 compared to the control group without drug or TBOA treatment; #) p < 0.05 compared to controls without TBOA treatment. One-way ANOVA followed by Dunnett post-test
Cells were seeded at appropriate density (LoVo 10,000, and HCT116 5000 cells /100 μl) in growth medium in 96-well plates. Next day, cells were treated with inhibitors and/or chemotherapy in a total volume of 200 μl in growth medium and incubated for 48 h at 37 °C, 5 % CO2. The medium was replaced with 100 μl of 0.5 mg/ml 3-(4,5-dimethylthiazol-2-yl)-2,5-diphenyltetrazolium bromide (MTT) in growth medium. The reaction was stopped 1.5-2.5 h later by addition of 100 μl 20 % SDS in 0.02 M HCl, and incubation overnight to allow complete lysis of cells and formazan crystals. Absorbance was measured in an ELISA plate reader (Thermo Scientific MultiScan FC) at 550 nm. Data were background subtracted and % viability relative to controls calculated.
(Tetrazolium assays rely on reduction of a dye to a coloured formazan, in cell work by metabolically active cells.)

Experiment [4] concerns p21^WAF1/Cip (p21). Briefly: p21 protein level by Western blotting. To be noted: 24 h. The procedure: as §1
Supplementary file 12885_2015_1405_MOESM3_ESM.tiff: Additional file 3: Figure S3. Effects of DL-TBOA on cell death and survival parameters after chemotherapy treatment of HCT116 cells. Parental and drug-resistant HCT116 cell lines seeded in 6-well dishes were exposed to SN38 (0.8 μM) or oxaliplatin (20 μM), alone or in combination with 350 μM DL-TBOA as indicated, for 24 h. Equal amounts of protein per lane were separated by SDS-PAGE and the protein levels of p21, and PARP-1 (full-length and cleaved, the latter indicated by arrowheads) were determined by Western blotting. Top: Representative Western blots, with p150 as loading control. Bottom: Densitometric quantifications based on 3 independent experiments per condition. Data are means with S.E.M. error bars of 3 independent experiments. *) p < 0.05, **) p < 0.01, ***) p < 0.001,****) p < 0.0001 compared to the control group without drug or TBOA treatment; #) p < 0.05 compared to controls without TBOA treatment. Two-way ANOVA with Tukey post-test.

The subject of experiment [5] is p53. Nature of the experiment: p53 protein level by Western blotting. The conditions noted are these: 24 h. The procedure: Fig. 5 Effects of DL-TBOA on cell death and survival parameters after chemotherapy treatment. Parental and drug-resistant HCT116 (a) and LoVo (b) cell lines were exposed to SN38 (0.8 μM) or oxaliplatin (20 μM), alone or in combination with 350 μM DL-TBOA as indicated, for 24 h. Equal amounts of protein per lane were separated by SDS-PAGE and the protein level of p53 was determined by Western blotting. Top: Representative Western blots, with p150 as loading control. Bottom: Densitometric quantifications based on 3 independent experiments per condition. Data are means with S.E.M. error bars of 3 independent experiments. *) p < 0.05, **) p < 0.01, ***) p < 0.001,****) p < 0.0001 compared to the control group without drug or TBOA treatment; Two-way ANOVA with Tukey post-test
as §1

Experiment [6] deals with cellular reduced glutathione (GSH). Nature of the experiment: Cellular GSH level. To be noted: parental HCT116 cells; 24 h; 0.8 μM SN38 or 20 μM oxaliplatin. The procedure: Fig. 4 Effect of glutamate transporter inhibition on cellular GSH levels. a Basal intracellular GSH levels were measured as described in Materials and Methods, and normalized to total protein in the samples. b-c Normalized basal GSH levels under control conditions, in HCT116 and LoVo parental and resistant cells after 24 h of treatment with 0.8 μM SN38 or 20 μM oxaliplatin, in absence or presence of DL-TBOA (350 μM) as shown. * p < 0.05 vs untreated control group (n = 5). One-way ANOVA followed by Dunnett post-test
Cells were seeded in 24-well plates (10^4 cells per well), treated the next day with chemotherapy and/or DL-TBOA and incubated for 24 h. Medium was removed and cells were washed twice with ice-cold PBS, which was removed and 500 μl ice-cold 1 % Sulfosalicylic acid was added per well. Cells were incubated on ice for at least 10 min. After centrifugation (1 min, 15,000 g), 10 μl lysate was used to determine total GSx content. To measure GSSG content, 130 μl sample was mixed with 55 μl 0.2 M Tris (pH 9) and 5 μl 2-Vinylpyridine. Tubes were vortexed carefully and incubated for at least 1 h at room temperature. 10 μl of this mix was mixed first with 90 μl of water in a 96-well plate and then with a reaction mix (0.1 M sodium phosphate buffer pH 7.5 containing 1 mM EDTA, 10 mM NADPH, 10 mM DTNB and 0.05 μl Glutathione reductase, 2U/μl). Measurements were taken every 30 s for 10 min in an ELISA plate reader (Thermo Scientific MultiScan FC) at 405 nm absorbance. GSH values were obtained by subtraction of GSSG values from GSx values.

Setting [7] is: SN38-resistant HCT116 cells, 0.8 μM SN38 or 20 μM oxaliplatin.
Where [8] appears, read: oxaliplatin-resistant HCT116 cells, 0.8 μM SN38.
The mark [9] stands for this setting: parental HCT116 cells, 0.8 μM SN38 or 20 μM oxaliplatin.

The structures appear in SMILES notation.

For `CCc1c2c(nc3ccc(O)cc13)-c1cc3c(c(=O)n1C2)COC(=O)[C@]3(O)CC` [SN38, 7-ethyl-10-hydroxycamptothecin], the SLC1A1 subcellular localization entry in experiment [1] is “marked shift in SLC1A1 localization towards the perinuclear/nuclear region”. In addition, the PARP-1 cleavage entry in experiment [2] was “induced by SN38 in parental and oxaliplatin-resistant, yet not in SN38-resistant, cells”. The viability at 0.8 µM in experiment [3] was roughly 20%. Besides, the p21 protein level entry is “modestly increased p21 expression” in experiment [4] (setting [7]); “only SN38 induced p53 and p21 expression” in experiment [4] (setting [8]); “markedly induced” in experiment [4] (setting [9]). Moreover, the p53 protein level result in experiment [5] (setting [7]) is “essentially no effect on p53 expression”; in experiment [5] (setting [8]), “only SN38 induced p53 and p21 expression”; in experiment [5] (setting [9]), “markedly induced”. The “effect on cellular GSH levels” value in experiment [6] is “slightly increased GSH levels”.
